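GI50 marks 50% less growth. At the TGI there is no net growth.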
What was measured:
Experiment in all cases: growth of human tumour cells (NCI), 384-well format
[1] = tested on: NCI-H522 lung
[2] = tested on: SNB-75 CNS
[3] = tested on: RPMI-8226 leukemia
[4] = tested on: CCRF-CEM leukemia
[5] = tested on: HL-60(TB) leukemia
[6] = tested on: 786-0 renal
[7] = tested on: NCI-H23 lung
[8] = tested on: OVCAR-3 ovarian
[9] = tested on: SK-MEL-5 melanoma
[10] = tested on: SN12C renal
[11] = tested on: MDA-MB-435 melanoma
[12] = tested on: HOP-62 NSCLC
[13] = tested on: HOP-92 NSCLC
[14] = tested on: TK-10 renal
[15] = tested on: NCI-H460 NSCLC
[16] = tested on: HT29 colon
[17] = tested on: ACHN renal
[18] = tested on: BT-549 breast
[19] = tested on: CAKI-1 renal
[20] = tested on: HCT-15 colon
[21] = tested on: NCI-H322M lung
[22] = tested on: SK-MEL-28 melanoma
[23] = tested on: NCI-H226 lung
[24] = tested on: EKVX NSCLC
[25] = tested on: HCC-2998 colon
[26] = tested on: SNB-19 CNS
[27] = tested on: MOLT-4 leukemia
[28] = tested on: LOX IMVI melanoma
[29] = tested on: A549 NSCLC
[30] = tested on: SK-OV-3 ovarian
[31] = tested on: COLO 205 colon
[32] = tested on: MALME-3M melanoma
[33] = tested on: SF-539 CNS
[34] = tested on: OVCAR-4 ovarian
[35] = tested on: A498 renal
[36] = tested on: SF-295 CNS
[37] = tested on: UO-31 renal
[38] = tested on: K-562 leukemia
[39] = tested on: DU-145 prostate
[40] = tested on: NCI/ADR-RES ovarian
[41] = tested on: UACC-257 melanoma
[42] = tested on: U251 glioblastoma
[43] = tested on: SF-268 CNS
[44] = tested on: IGROV1 ovarian
[45] = tested on: MDA-MB-231 breast
[46] = tested on: T-47D breast
[47] = tested on: MDA-MB-468 breast
[48] = tested on: MCF7 breast
[49] = tested on: SW-620 colon
[50] = tested on: PC-3 prostate
[51] = tested on: HS 578T breast
[52] = tested on: KM12 colon
[53] = tested on: HCT-116 colon
[54] = tested on: OVCAR-5 ovarian
[55] = tested on: M14 melanoma
[56] = tested on: RXF 393 renal
[57] = tested on: OVCAR-8 ovarian
[58] = tested on: UACC-62 melanoma

`O=C(Oc1ccc([N+](=O)[O-])cc1)N1CCC(C(O)(c2ccc3c(c2)OCO3)c2ccc3c(c2)OCO3)CC1` showed a GI50 [1] of over 100 µM, a TGI [1] of over 100 µM and a GI50 [2] of 24.6 µM. The TGI [2] was over 100 µM, the GI50 [3] was over 100 µM and the TGI [3] was over 100 µM. The GI50 [4] was over 100 µM, the TGI [4] was over 100 µM and the GI50 [5] was over 100 µM. It also gave a TGI [5] of over 100 µM, a GI50 [6] of over 100 µM and a TGI [6] of over 100 µM. For the same compound, the GI50 [7] was over 100 µM, the TGI [7] was over 100 µM and the GI50 [8] was over 100 µM. It also gave a TGI [8] of over 100 µM, a GI50 [9] of over 100 µM and a TGI [9] of over 100 µM. It also gave a GI50 [10] of over 100 µM, a TGI [10] of over 100 µM and a GI50 [11] of over 100 µM. For the same compound, the TGI [11] was over 100 µM, the GI50 [12] was over 100 µM and the TGI [12] was over 100 µM. The GI50 [13] was 44.5 µM, the TGI [13] was over 100 µM and the GI50 [14] was over 100 µM. It also gave a TGI [14] of over 100 µM, a GI50 [15] of over 100 µM and a TGI [15] of over 100 µM. It also gave a GI50 [16] of over 100 µM, a TGI [16] of over 100 µM and a GI50 [17] of over 100 µM. The TGI [17] was over 100 µM, the GI50 [18] was 53.1 µM and the TGI [18] was over 100 µM. The GI50 [19] was over 100 µM, the TGI [19] was over 100 µM and the GI50 [20] was over 100 µM. It also gave a TGI [20] of over 100 µM, a GI50 [21] of over 100 µM and a TGI [21] of over 100 µM. It also gave a GI50 [22] of over 100 µM, a TGI [22] of over 100 µM and a GI50 [23] of over 100 µM. For the same compound, the TGI [23] was over 100 µM, the GI50 [24] was over 100 µM and the TGI [24] was over 100 µM. The GI50 [25] was 18.2 µM, the TGI [25] was over 100 µM and the GI50 [26] was over 100 µM. For the same compound, the TGI [26] was over 100 µM, the GI50 [27] was over 100 µM and the TGI [27] was over 100 µM. It also gave a GI50 [28] of over 100 µM, a TGI [28] of over 100 µM and a GI50 [29] of over 100 µM. The TGI [29] was over 100 µM, the GI50 [30] was over 100 µM and the TGI [30] was over 100 µM. For the same compound, the GI50 [31] was over 100 µM, the TGI [31] was over 100 µM and the GI50 [32] was over 100 µM. For the same compound, the TGI [32] was over 100 µM, the GI50 [33] was over 100 µM and the TGI [33] was over 100 µM. It also gave a GI50 [34] of over 100 µM, a TGI [34] of over 100 µM and a GI50 [35] of over 100 µM. The TGI [35] was over 100 µM, the GI50 [36] was over 100 µM and the TGI [36] was over 100 µM. For the same compound, the GI50 [37] was over 100 µM, the TGI [37] was over 100 µM and the GI50 [38] was over 100 µM. It also gave a TGI [38] of over 100 µM, a GI50 [39] of over 100 µM and a TGI [39] of over 100 µM. It also gave a GI50 [40] of over 100 µM, a TGI [40] of over 100 µM and a GI50 [41] of over 100 µM. For the same compound, the TGI [41] was over 100 µM, the GI50 [42] was over 100 µM and the TGI [42] was over 100 µM. It also gave a GI50 [43] of 11.1 µM, a TGI [43] of over 100 µM and a GI50 [44] of over 100 µM. It also gave a TGI [44] of over 100 µM, a GI50 [45] of over 100 µM and a TGI [45] of over 100 µM. The GI50 [46] was 2.93 µM, the TGI [46] was over 100 µM and the GI50 [47] was 32.6 µM. It also gave a TGI [47] of over 100 µM, a GI50 [48] of over 100 µM and a TGI [48] of over 100 µM. The GI50 [49] was over 100 µM, the TGI [49] was over 100 µM and the GI50 [50] was over 100 µM. For the same compound, the TGI [50] was over 100 µM, the GI50 [51] was 24.5 µM and the TGI [51] was over 100 µM. For the same compound, the GI50 [52] was over 100 µM, the TGI [52] was over 100 µM and the GI50 [53] was over 100 µM. It also gave a TGI [53] of over 100 µM, a GI50 [54] of over 100 µM and a TGI [54] of over 100 µM. It also gave a GI50 [55] of over 100 µM, a TGI [55] of over 100 µM and a GI50 [56] of 98.7 µM. For the same compound, the TGI [56] was over 100 µM, the GI50 [57] was over 100 µM and the TGI [57] was over 100 µM. The GI50 [58] was over 100 µM and the TGI [58] was over 100 µM.
